Source: patent US6794396B2, “Substituted pyridines useful for inhibiting cholesteryl ester transfer protein activity” (Pharmacia Corporation, priority 1998, dated 2004)
“And” between values parts separate entries of the source, which are not always exact repeats. Equal entries are not always repeated.

biological target: T1, CETP (Homo sapiens, UniProt P11597); assay: CETP activity in vitro: transfer of [3H]CE from HDL donor to LDL acceptor particles; assay type: biochemical; conditions: 10 μm
T1 construct: made in house; host or cells: CHO cells (serum-free conditioned medium)
T1 sequence (P11597 18-493): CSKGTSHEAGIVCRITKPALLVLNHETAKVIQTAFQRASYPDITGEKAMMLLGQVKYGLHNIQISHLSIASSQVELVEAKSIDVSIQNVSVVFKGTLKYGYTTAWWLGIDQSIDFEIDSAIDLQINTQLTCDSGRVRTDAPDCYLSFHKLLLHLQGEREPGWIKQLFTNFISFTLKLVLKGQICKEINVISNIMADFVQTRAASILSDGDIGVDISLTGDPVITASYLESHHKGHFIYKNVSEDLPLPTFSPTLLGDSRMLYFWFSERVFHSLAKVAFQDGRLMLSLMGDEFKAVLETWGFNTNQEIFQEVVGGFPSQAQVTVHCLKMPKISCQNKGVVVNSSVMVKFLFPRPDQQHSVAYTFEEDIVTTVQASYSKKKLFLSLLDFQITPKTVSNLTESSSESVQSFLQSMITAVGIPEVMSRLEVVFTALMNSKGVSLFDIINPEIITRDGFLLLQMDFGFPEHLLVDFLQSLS
Procedure: The ability of compounds to inhibit CETP were assessed using an in vitro assay that measured the rate of transfer of radiolabeled cholesteryl ester ([^3H]CE) from HDL donor particles to LDL acceptor particles. Details of the assay are provided by Glenn et al. (“Quantification of Cholesteryl Ester Transfer Protein (CETP): A) CETP Activity and B) Immunochemical Assay of CETP Protein,” Meth. Enzymol., Glenn and Melton (Meth. Enzymol., 263, 339-351 (1996), which is incorporated herein by reference). CETP was obtained from the serum-free conditioned medium of CHO cells transfected with a cDNA for CETP (Wang, S. et al. J. Biol Chem. 267, 17487-17490 (1992), which is incorporated herein by reference).
To measure CETP activity, [^3H]CE-labeled HDL, LDL, CETP and assay buffer (50 mM tris(hydroxymethyl)amino-methane, pH 7.4; 150 mM sodium chloride; 2 mM ethylenediamine-tetraacetic acid; 1% bovine serum albumin) were incubated in a volume of 200 μl, for 2 hours at 37° C. in 96 well plates. LDL was differentially precipitated by the addition of 50 μl of 1% (w/v) dextran sulfate/0.5 M magnesium chloride, mixed by vortex, and incubated at room temperature for 10 minutes The solution (200μl) was transferred to a filter plate (Millipore). After filtration, the radioactivity present in the precipitated LDL was measured by liquid scintillation counting.
This value was defined as the IC50.

In the case of `CCOC(C)Sc1c(C(F)(F)F)nc(C(F)F)c(C(=O)OC)c1CC(C)C` (stereo not drawn) [Compound 146, Methyl 2-(Difluoromethyl)-5-(1-ethoxyethylthio)-4-(2-methylpropyl)-6-(trifluoromethyl)-3-pyridinecarboxylate], the “% transfer at 10 μm” value is reported as 67^D %.
`COC(=O)c1c(C(F)F)nc(C(F)(F)F)c(SC(C)OC)c1CC(C)C` (stereo not drawn) [Compound 147, Methyl 2-(Difluoromethyl)-4-(2-methylpropyl)-5-(1-methoxyethylthio)-6-(trifluoromethyl)-3-pyridinecarboxylate] was tested, and the “% transfer at 10 μm” value was 15^D %.
With `COC(=O)c1c(C(F)F)nc(C(F)(F)F)c(SCCF)c1CC(C)C` [Compound 148, Methyl 2-(Difluoromethyl)-5-(2-fluoroethylthio)4-(2-methylpropyl)-6-(trifluoromethyl)-3-pyridinecarboxylate] the “% transfer at 10 μm” value was 32^D %.
For `COC(=O)c1c(C(F)F)nc(C(F)(F)F)c(SC(C)=O)c1CC(C)C` [Compound 149, Methyl 5-(Acetylthio)-2-(difluoromethyl)-4-(2-methylpropyl)-6-(trifluoromethyl)-3-pyridinecarboxylate], the “% transfer at 10 μm” value was 31^D %.
`COC(=O)c1c(C(F)F)nc(C(F)(F)F)c(SC2CCCO2)c1CC(C)C` (stereo not drawn) [Compound 150, Methyl 2-(Difluoromethyl)-4-(2-methylpropyl)-5-[(tetrahydro-2-furyl)thio]-6-(trifluoromethyl)-3-pyridinecarboxylate] was tested, and the “% transfer at 10 μm” value was 95^D %.

same assay, conditions: 50% inhibition of [3H]CE transfer from HDL to LDL, 2 hours at 37° C.; read-out: IC50(μm)

Going from `CCOC(=O)c1c(C(F)(F)F)nc(C(F)(F)F)c(C#N)c1OCC` [Compound 64] to `CCOP(=O)(OCC)C(=O)c1c(C(F)(F)F)nc(C(F)F)c(C(=O)OC)c1NC(C)C` [Compound 85, Methyl 5-[(Diethoxyphosphinyl)carbonyl]-2-(difluoromethyl)-4-(1-methylethylamino)-6-(trifluoromethyl)-3-pyridinecarboxylate], the IC50 rises from 60 µM to 90 µM (1.5-fold).

`COC(=O)c1c(C(F)F)nc(C(F)(F)F)c(C(=O)OC)c1Cc1ccnc(SC)n1` [Compound 67, Dimethyl 2-(Difluoromethyl)-4-{[(2-methylthio)pyrimidin-4-yl]methyl}-6-(trifluoromethyl)-3,5-pyridinedicarboxylate] and `COC(=O)c1c(C(F)F)nc(C(F)(F)F)c(C(N)=S)c1CC(C)C` [Compound 77, Methyl 2-(Difluoromethyl)-4-(2-methylpropyl)-5-(aminothionocarbonyl)-6-(trifluoromethyl) -3-pyridinecarboxylate] are within 1.5-fold of each other in IC50: 60 µM for the first, 70 µM for the second.

`COC(=O)c1c(C(F)F)nc(C(F)(F)F)c(CSC(=O)N(C)C)c1CC(C)C` [Compound 79] and `COC(=O)c1c(C(F)F)nc(C(F)(F)F)c(CCl)c1CC(C)C` [Compound 83, Methyl 5-Chloromethyl-2-(difluoromethyl)-4-(2-methylpropyl)-6-(trifluoromethyl)-3-pyridinecarboxylate] are within 1.5-fold of each other in IC50: 75 µM for the first, 80 µM for the second.

For `COC(=O)c1c(C(F)F)nc(C(F)(F)F)c(C(=O)Oc2cccc(OC)c2)c1CC(C)C` [Compound 165, 3-Methyl 5-(3-Methoxyphenyl) 2-(Difluoromethyl)-4-(2-methylpropyl)-6-(trifluoromethyl)-3,5-pyridicarboxylate], the IC50 was > 100 µM and 70 µM.

same assay, conditions: 100 μm

With `COC(=O)c1c(C(F)F)nc(C(F)(F)F)c(SCC(N)=O)c1CC(C)C` [Compound 145] the “% Transfer @ 100 μm” value was 64%.

same assay, conditions: 2 h, read-out: % Transfer @ 100 μm

`COC(=O)c1c(C(F)F)nc(C(F)(F)F)c([S+]([O-])CCCl)c1CC(C)C` (stereo not drawn) [Compound 111, Methyl 5-(Chloroethylsulfinyl)-2-(difluoromethyl)-4-(2-methylpropyl)-6-(trifluoromethyl)-3-pyridinecarboxylate] was tested, and the remaining activity at 100 µM was 78%.

same assay, conditions: 2 h; read-out: % Transfer @ 100 μm

Going from `CCOC(=O)c1c(C(F)(F)F)ncc(C(=O)OC(C)C)c1O` [Compound 101, 3-Ethyl 5-Isopropyl 4-hydroxy-2-(trifluoromethyl)-3,5-pyridinedicarboxylate] to `CCOC(=O)c1cnc(C(F)(F)F)c(OCC)c1O` [Compound 114, Ethyl 5-Ethoxy-4-Hydroxy-6-(trifluoromethyl)-3-pyridinecarboxylate], the remaining activity at 100 µM rises from 71% to 81%.

First: COC(=O)c1c(C(F)F)nc(C(F)(F)F)c(C2CC(C)N(O)C2)c1CC1CC1 (stereo not drawn) [Compound 107, Methyl 4-(Cyclopropylmethyl)-2-(difluoromethyl)-5-(1-hydroxy-5-methyl-3-pyrrolidinyl)-6-(trifluoromethyl)-3-pyridinecarboxylate]
Second: COC(=O)c1c(C(F)F)nc(C(F)(F)F)c(C(=N)SC)c1CC1CC1 [Compound 112, Methyl 4-(Cyclopropylmethyl)-2-(difluoromethyl)-5-[imino(methylthio)methyl]-6-(trifluoromethyl)-3-pyridinecarboxylate]
The remaining activity at 100 µM of the first is lower: 75% for the first, 78% for the second.

Going from `CCOC(=O)c1cnc(C(F)(F)F)c(Oc2ccccc2)c1O` [Compound 109, Ethyl 4-Hydroxy-5-phenoxy-6-(trifluoromethyl)-3-pyridinecarboxylate] to `Cc1c(C(F)(F)F)ncc(C(=O)O)c1Sc1ccc(C(C)C)cc1` [Compound 126, 4-(4-Isopropylphenylthio)-5-methyl-6-(trifluoromethyl)-3-pyridinecarboxylic Acid], the remaining activity at 100 µM rises from 76% to 90%.

Going from `COC(=O)c1c(C(F)F)nc(C(F)(F)F)c(-c2ncco2)c1CC(C)C` [Compound 110, Methyl 2-(difluoromethyl)-4-(2-methylpropyl)-5-(2-oxazolyl)-6-(trifluoromethyl)-3-pyridinecarboxylate] to `COC(=O)c1c(C(F)F)nc(C(F)(F)F)c(NC(=O)c2sc(Cl)nc2C(F)(F)F)c1CC(C)C` [Compound 117, Methyl {-[2-Chloro-4-(trifluoromethyl)-5-thiazolyl]carbonylamino}-2-(difluoromethyl)-4-(2-methylpropyl)-6-(trifluoromethyl)-3-pyridinecarboxylate], the remaining activity at 100 µM rises from 76% to 83%.

First: COC(=O)c1c(C(F)F)nc(C(F)(F)F)c(C(N)=S)c1C1CCC1 [Compound 119, Methyl 5-(aminothioxomethyl)-4-(cyclobutyl)-2-(difluoromethyl)-6-(trifluoromethyl)-3-pyridinecarboxylate]
Second: COC(=O)c1c(OC(C)C)ccnc1C(F)(F)F [Compound 127, Methyl 4-(1-Methylethoxy)-2-(trifluoromethyl)-3-pyridinecarboxylate]
The remaining activity at 100 µM of the first is lower: 84% for the first, 90% for the second.

same assay, conditions: IC50(μm), 50% inhibition of [3H]CE transfer from HDL to LDL, 2 hours at 37° C.

`COC(=O)c1c(C(F)F)nc(C(F)(F)F)c(C2SCCS2)c1CC(C)C` [Compound 61] and `COC(=O)c1c(C(F)F)nc(C(F)(F)F)c(C(=O)SC)c1CC(C)C` [Compound 69] are within 1.5-fold of each other in IC50: 60 µM for the first, 65 µM for the second.

`CCCc1c(C(=O)OC)c(C(F)F)nc(C(F)(F)F)c1C(=O)SCC` [Compound 62] and `CCSc1c(C(F)(F)F)nc(C(F)F)c(C(=O)OC)c1C1CCC1` [Compound 66] are the same in IC50: 60 µM for the first, 60 µM for the second.

`COC(=O)c1c(C(F)F)nc(C(F)(F)F)c(-n2cccc2)c1C1CCC1` [Compound 70, Methyl 2-(Difluoromethyl)-4-cyclobutyl-5-(1-pyrrolyl)-6-(trifluoromethyl)-3-pyridinecarboxylate] and `COC(=O)c1c(C(F)F)nc(C(F)(F)F)c(C(=O)Sc2ccccc2C(C)C)c1CC(C)C` [Compound 157, Methyl 2-(Difluoromethyl)-4-(2-methylpropyl)-5-{[(2-isopropylphenyl)thio]carbonyl}-6-(trifluoromethyl)-3-pyridinecarboxylate] are within 1.5-fold of each other in IC50: 65 µM for the first, 60 µM for the second.
